In patent publication US20250270619A1, “COMPOSITIONS, KITS AND METHODS FOR DIRECT AMPLIFICATION FROM CRUDE BIOLOGICAL SAMPLES” (LIFE TECHNOLOGIES CORPORATION, priority 2021, published 2025):

System: SARS-Cov-2 virus particles
Assay: RT-qPCR screening of surfactant treatment solutions for disruption of SARS-CoV-2 virus particles
Conditions: for effect of heating the virus-surfactant mixture on Cq values (compatibility with RT-qPCR): then 92° C. for 5 minutes
[1] = Example 1, 2X concentration per surfactant, 30 minutes ambient, without heating
[2] = Example 2, surfactant 0.02-0.08%, absence of a heating step

With `C[C@H](CCC(=O)NCCC[N+](C)(C)CC(O)CS(=O)(=O)[O-])[C@H]1CC[C@H]2[C@@H]3[C@H](O)C[C@@H]4C[C@H](O)CC[C@]4(C)[C@H]3C[C@H](O)[C@]12C` (stereo partly drawn) [CHAPSO, 3-[(3-cholamidopropyl)dimethylammonio]-2-hydroxy-1-propanesulfonate] the “disruption of virus particles (Cq vs virus in Tris-EDTA buffer)” value [1] was “ineffective at disrupting the virus particles” and the “effect of heating the virus-surfactant mixture on Cq values (compatibility with RT-qPCR)” value (“effect … (compatibility with RT-qPCR)” for short) (Example 1, 30 minutes ambient) was “compatible with RT-qPCR”.

In the case of `CCCCCCCCCC[N+](C)(C)CCCCCCCCCC.[Br-]` [DDAB, Didecyldimethylammonium bromide], the “disruption of virus particles (Cq vs virus in Tris-EDTA buffer)” value [1] is reported as “effective at disrupting the virus particles” and the “effect … (compatibility with RT-qPCR)” value (Example 1, 30 minutes ambient) is reported as “higher average Cq values”.

`CCCCCCCCCC[N+](C)(C)C.[Br-]` [DeTAB] was tested, and the “effect … (compatibility with RT-qPCR)” value (Example 1, 30 minutes ambient) was “compatible with RT-qPCR”.

`CCCCCCCCCCCC[N+](C)(C)C.[Br-]` [DoTAB] was tested, and the “disruption of virus particles (Cq vs virus in Tris-EDTA buffer)” value [1] was “ineffective at disrupting the virus particles”.

In the case of `CCCCCCCCCCCC[N+](C)(C)CC.[Br-]` [EDMAB, Dodecylethyldimethylammonium bromide], the “disruption of virus particles (Cq vs virus in Tris-EDTA buffer)” value [1] is reported as “ineffective at disrupting the virus particles” and the “effect … (compatibility with RT-qPCR)” value (Example 1, 30 minutes ambient) is reported as “compatible with RT-qPCR”.

For `CCCCCCCCCCCC[N+](C)(C)[O-]` [LDAO, N,N Dimethydodecylamine-N-oxide], the “disruption of virus particles (Cq vs virus in Tris-EDTA buffer)” value [1] was “effective at disrupting the virus particles”, the “disruption of virus particles (Cq vs virus in Tris-EDTA buffer)” value [2] was “effective at disrupting the virus particles” and the “virus disruption vs incubation time” value (Example 3, 0.02% LDAO solution (2X), 0 to 60 minutes room temperature, no heating) was “rapidly disrupted the virus particles”.

For `O=S(=O)([O-])CCC[n+]1ccccc1` [NDSB201], the “disruption of virus particles (Cq vs virus in Tris-EDTA buffer)” value [1] was “ineffective at disrupting the virus particles”.

In the case of `CCCCCCCCCCCC(=O)OCCOCCOCCOCCOCCOCCOCCOCCOCCOCCOCCOCCOCCOCCOCCOCCOCCOCCOCCOCCOCC(OCCOCCOCCOCCOCCOCCOCCOCCOCCOCCOCCOCCOCCOCCOCCOCCOCCOCCOCCOCCO)C1OCC(OCCOCCOCCOCCOCCOCCOCCOCCOCCOCCOCCOCCOCCOCCOCCOCCOCCOCCOCCOCCO)C1OCCOCCOCCOCCOCCOCCOCCOCCOCCOCCOCCOCCOCCOCCOCCOCCOCCOCCOCCOCCO` (stereo not drawn) [Tween 20, polysorbate 20], the “disruption of virus particles (Cq vs virus in Tris-EDTA buffer)” value [1] is reported as “effective at disrupting the virus particles”.

`CCCCCCCC/C=C\CCCCCCCC(=O)OCCOCC(OCCO)C1OCC(OCCO)C1OCCO` (stereo not drawn) [Tween 80] was tested, and the “disruption of virus particles (Cq vs virus in Tris-EDTA buffer)” value [1] was “ineffective at disrupting the virus particles” and the “effect … (compatibility with RT-qPCR)” value (Example 1, 30 minutes ambient) was “compatible with RT-qPCR”.

In the case of `CCCCCCCCCCCCCC[N+](C)(C)CCCS(=O)(=O)[O-]` [Zwittergent 3-14, n-Tetradecyl-N,N-dimethyl-3-ammonio-1-propanesulfonate], the “disruption of virus particles (Cq vs virus in Tris-EDTA buffer)” value [1] is reported as “effective at disrupting the virus particles” and the “disruption of virus particles (Cq vs virus in Tris-EDTA buffer)” value [2] is reported as “effective at disrupting the virus particles”.

For Benzalkonium Chloride [BZK], the “disruption of virus particles (Cq vs virus in Tris-EDTA buffer)” value [1] was “effective at disrupting the virus particles” and the “effect on downstream RT-qPCR” value (Example 2, surfactant 0.08%) was “inhibitory to downstream RT-qPCR”.

With “N-(Alkyl C10-C16)-N,N-dimethylglycine betaine [Empigen BB]” the “disruption of virus particles (Cq vs virus in Tris-EDTA buffer)” value [1] was “effective at disrupting the virus particles”.

“nonyl phenoxypolyethoxylethanol [NP-40 alternative]” was tested, and the “disruption of virus particles (Cq vs virus in Tris-EDTA buffer)” value [1] was “effective at disrupting the virus particles”.
